Source: patent publication US9096615B2, “Bridged bicyclic amino thiazine dioxide compounds as inhibitors of beta-secretase and methods of use thereof” (AMGEN INC., priority 2013, dated 2015)

Key:
human Bace2 protein = molecular target: T1, human Bace2 protein (Homo sapiens, UniProt Q9Y5Z0); experiment: In vitro enzymatic BACE2 FRET assay; type: biochemical; details: average IC50; read-out: BACE2 Enzyme assay IC50
T1 construct: V5 (C); 6-His (C)
T1 sequence (Q9Y5Z0 63-518): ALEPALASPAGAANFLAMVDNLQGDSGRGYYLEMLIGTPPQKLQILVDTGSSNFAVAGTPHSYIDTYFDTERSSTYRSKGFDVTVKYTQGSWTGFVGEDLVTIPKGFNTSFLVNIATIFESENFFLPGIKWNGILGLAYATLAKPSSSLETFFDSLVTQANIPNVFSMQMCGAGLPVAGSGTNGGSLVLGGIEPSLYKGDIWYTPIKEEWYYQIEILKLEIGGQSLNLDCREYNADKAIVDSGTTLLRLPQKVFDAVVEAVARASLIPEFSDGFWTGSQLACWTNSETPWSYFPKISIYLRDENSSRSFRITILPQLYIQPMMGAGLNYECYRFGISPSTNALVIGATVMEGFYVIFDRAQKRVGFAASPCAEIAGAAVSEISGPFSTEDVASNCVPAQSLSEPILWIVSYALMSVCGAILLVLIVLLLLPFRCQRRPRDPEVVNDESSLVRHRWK
Procedure: In Vitro Enzymatic BACE2 FRET (Fluorescence Resonance Energy Transfer) Assay
Enzyme Assay Data in the Table 3
The assay buffer used in this screen is 0.05 M acetate, pH 4.2, 10% DMSO final, 100 uM genapol (which is a nonionic detergent, below its Critical Micelle Concentration). The Beta Secretase2 enzyme (human Bace2 protein with C-terminal V5 and 6-His tag; 0.2 nM) is pre-incubated for one hour with inhibitors, typically in about 1 uL of DMSO according to a serial dilution, are added thereto. This assay is effectively started by the addition of FRET substrate (50 nM) and the combination is incubated for one hour. Final assay concentration of about 0.64 nM. The FRET assay is terminated with by addition of Tris buffer, which raises the pH to neutrality, and the fluorescence is determined. The FRET substrate is a peptide with commercially available fluorophore and quencher, on opposite sides of the BACE cleavage site. Proteolytic cleavage of the FRET substrate releases quenching of fluorescence (excitation 488 nm and […]).

BACE1 = BACE1 (Homo sapiens, UniProt P56817); experiment: In vitro enzymatic BACE FRET assay; type: biochemical; details: average IC50; read-out: BACE1 Enzyme assay IC50
Outline: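 BACE (0.2 nM) pre-incubated 1 h with serially diluted inhibitor in 0.05 M acetate pH 4.2, 10% DMSO, 100 uM genapol; 50 nM FRET peptide substrate added, 1 h incubation. Stopped with Tris to neutral pH; fluorescence read (ex 488, […]).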

Cathepsin D (Cat D) = molecular target: T2, Cathepsin D (Cat D) (Homo sapiens, UniProt P07339); experiment: In vitro enzymatic Cathepsin D (Cat D) FRET assay; type: biochemical; details: average IC50; first procedure; read-out: CatD IC50
T2 construct: made in house; host or cells: CHO cells
Outline: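 Recombinant human Cat D expressed in CHO cells, 9 nM, pre-incubated 1 h with inhibitor in 0.05 M citrate pH 3.5, 10% DMSO, 5 mM CHAPS. Reaction started with 20 nM FRET peptide substrate, run 1 h, stopped with Tris to neutral pH; fluorescence read at ex 500/em 580 nm.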

[1] = test system: Aβ40 in conditioned medium of cells stably expressing Amyloid Precursor Protein (APP); experiment: In vitro BACE cell-based assay (HEK cell assay, Aβ40 sandwich ELISA); details: Homo sapiens, HEK293; average IC50; read-out: BACE1 cell assay IC50
Outline: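 APP-stable cells were cultured 24 h at 37 °C, then given compound as 10-point dose-response (top 100 μM or 10 μM; 0.1% DMSO final) for 24 h. Aβ40 in conditioned medium was measured by sandwich ELISA (pAb40 capture, biotinylated 6E10 detection, Eu time-resolved fluorescence). IC50 from percent inhibition versus concentration.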

rat = details: higher compound dose given for three months; cited from earlier work
Aβ in lumbar CSF = details: cited from earlier work

BACE1, sequence (P56817 46-501, species assumed): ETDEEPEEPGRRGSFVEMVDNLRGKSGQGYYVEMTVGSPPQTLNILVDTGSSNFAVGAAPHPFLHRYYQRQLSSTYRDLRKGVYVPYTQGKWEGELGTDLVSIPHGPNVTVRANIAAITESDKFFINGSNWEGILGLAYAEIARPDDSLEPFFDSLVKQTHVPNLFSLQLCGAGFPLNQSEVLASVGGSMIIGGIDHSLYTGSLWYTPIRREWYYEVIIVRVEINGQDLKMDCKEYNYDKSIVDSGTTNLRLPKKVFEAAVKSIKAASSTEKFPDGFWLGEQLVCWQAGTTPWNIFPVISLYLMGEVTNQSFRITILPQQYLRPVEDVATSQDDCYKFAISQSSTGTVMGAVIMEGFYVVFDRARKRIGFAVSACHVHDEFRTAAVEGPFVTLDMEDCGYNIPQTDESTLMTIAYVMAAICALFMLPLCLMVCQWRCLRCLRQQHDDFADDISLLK
T2 sequence (P07339 65-412, species assumed): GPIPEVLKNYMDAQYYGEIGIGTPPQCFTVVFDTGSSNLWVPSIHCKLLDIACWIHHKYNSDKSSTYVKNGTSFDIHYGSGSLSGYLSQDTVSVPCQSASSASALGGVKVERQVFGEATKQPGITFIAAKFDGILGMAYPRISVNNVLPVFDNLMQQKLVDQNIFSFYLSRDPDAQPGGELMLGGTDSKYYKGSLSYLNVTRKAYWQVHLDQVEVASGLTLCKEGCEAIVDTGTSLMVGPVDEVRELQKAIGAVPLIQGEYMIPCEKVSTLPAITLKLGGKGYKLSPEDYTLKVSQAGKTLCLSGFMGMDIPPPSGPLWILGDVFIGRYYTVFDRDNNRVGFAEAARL

Q: Which IC50 (human Bace2 protein) does the source give for `C[C@]1(c2cc(Nc3nccc4cc(C#N)cnc34)ccc2F)N=C(N)[C@@]2(C)CC[C@@H]1S2(=O)=O` [Example 84, 8-((3-((1S,2R,5R)-4-amino-2,5-dimethyl-8,8-dioxido-8-thia-3-azabicyclo[3.2.1]oct-3-en-2-yl)-4-fluorophenyl)amino)-1,7-naphthyridine-3-carbonitrile] here?
A: The IC50 was 0.002 µM.

Q: What about the IC50 (BACE1) of the same compound?
A: The IC50 was 0.002 µM.

Q: What about the IC50 (Cathepsin D (Cat D)) of the same compound?
A: The IC50 was greater than 118 µM.

Q: And the IC50 [1]?
A: The IC50 was 0.003 µM.

Q: For `COc1cnc(C(=O)Nc2ccc(F)c([C@@]3(C)N=C(N)[C@@]4(CF)CC[C@@H]3S4(=O)=O)c2)c(F)c1` [Example 43, N-(3-((1S,2R,5R)-4-amino-5-(fluoromethyl)-2-methyl-8,8-dioxido-8-thia-3-azabicyclo[3.2.1]oct-3-en-2-yl)-4-fluorophenyl)-3-fluoro-5-methoxy-2-pyridinecarboxamide], which IC50 (human Bace2 protein) is on record?
A: The IC50 was 0.014 µM.

Q: What about the IC50 (BACE1) of the same compound?
A: Its IC50 is 0.009 µM.

Q: What about the IC50 (Cathepsin D (Cat D)) of the same compound?
A: The IC50 was greater than 400 µM.

Q: What about the IC50 [1] of the same compound?
A: Its IC50 is 0.007 µM.

Q: For `CC#CCOc1cnc2c(Nc3ccc(F)c([C@@]4(C)N=C(N)[C@@]5(C)CC[C@@H]4S5(=O)=O)c3)nccc2n1` [Example 62, N-(3-((1S,2R,5R)-4-amino-2,5-dimethyl-8,8-dioxido-8-thia-3-azabicyclo[3.2.1]oct-3-en-2-yl)-4-fluorophenyl)-2-(2-butyn-1-yloxy)pyrido[3,4-b]pyrazin-5-amine], which IC50 (human Bace2 protein) is on record?
A: Its IC50 is 0.007 µM.

Q: What about the IC50 (BACE1) of the same compound?
A: Its IC50 is 0.001 µM.

Q: What about the IC50 (Cathepsin D (Cat D)) of the same compound?
A: Its IC50 is 124 µM.

Q: What about the IC50 [1] of the same compound?
A: Its IC50 is 0.001 µM.

Q: What does the source list for `COCCOc1cnc2c(Nc3ccc(F)c([C@@]4(C)N=C(N)[C@@]5(C)CC[C@@H]4S5(=O)=O)c3)nccc2n1` [Example 145, N-(3-((1S,2R,5R)-4-amino-2,5-dimethyl-8,8-dioxido-8-thia-3-azabicyclo[3.2.1]oct-3-en-2-yl)-4-fluorophenyl)-2-(2-methoxyethoxy)pyrido[3,4-b]pyrazin-5-amine]?
A: IC50 (human Bace2 protein): 0.065 µM; IC50 (BACE1): 0.003 µM; IC50 (Cathepsin D (Cat D)): 1980 µM; IC50 [1]: 0.002 µM

Q: With `Cc1nc(OCC(F)(F)F)cnc1C(=O)Nc1ccc(F)c([C@@]2(C)N=C(N)[C@@]3(CF)CC[C@@H]2S3(=O)=O)c1` [Example 57, N-(3-((1S,2R,5R)-4-amino-5-(fluoromethyl)-2-methyl-8,8-dioxido-8-thia-3-azabicyclo[3.2.1]oct-3-en-2-yl)-4-fluorophenyl)-3-methyl-5-(2,2,2-trifluoroethoxy)-2-pyrazinecarboxamide] as the compound, how does the IC50 (human Bace2 protein) read?
A: The IC50 was 0.076 µM.

Q: And the IC50 (BACE1)?
A: The IC50 was 0.003 µM.

Q: What about the IC50 (Cathepsin D (Cat D)) of the same compound?
A: Its IC50 is greater than 400 µM.

Q: What about the IC50 [1] of the same compound?
A: The IC50 was 0.048 µM.

Q: For `C[C@@]1(c2cc(-c3cncnc3)c(F)cc2F)CCSC(N)=N1` [LY2811376, (S)-4-(2,4-difluoro-5-pyrimidin-5-yl-phenyl)-4-methyl-5,6-dihydro-4H-[1,3]thiazin-2-ylamine], which “rat toxicology finding in the eye” value (rat) is on record?
A: The value was “damaged the pigment epithelium of the rat's eye”.

Q: And the “Aβ reductions in lumbar CSF” value (Aβ in lumbar CSF; after oral dosing of 30 or 90 mg)?
A: The value was “Prominent and long-lasting Aβ reductions”.

Q: What about the safety and tolerability (Aβ in lumbar CSF; healthy volunteers) of the same compound?
A: The safety and tolerability was “safe and well tolerated”.

Q: Which results are given for `C#C[C@H](C)Oc1cnc(C(=O)Nc2ccc(F)c([C@@]3(C)N=C(N)[C@@]4(CF)CC[C@@H]3S4(=O)=O)c2)cn1` [Example 45, N-(3-((1S,2R,5R)-4-amino-5-(fluoromethyl)-2-methyl-8,8-dioxido-8-thia-3-azabicyclo[3.2.1]oct-3-en-2-yl)-4-fluorophenyl)-5-(((1S)-1-methyl-2-propyn-1-yl)oxy)-2-pyrazinecarboxamide]?
A: IC50 (human Bace2 protein): 0.019 µM; IC50 (BACE1): 0.003 µM; IC50 (Cathepsin D (Cat D)): 596 µM; IC50 [1]: 0.003 µM

Q: Which IC50 (human Bace2 protein) does the source give for `C[C@]1(c2cc(Nc3nccc4nc(OCC(F)(F)F)cnc34)ccc2F)N=C(N)[C@@]2(CF)CC[C@@H]1S2(=O)=O` [Example 112, N-(3-((1S,2R,5R)-4-amino-5-(fluoromethyl)-2-methyl-8,8-dioxido-8-thia-3-azabicyclo[3.2.1]oct-3-en-2-yl)-4-fluorophenyl)-2-(2,2,2-trifluoroethoxy)pyrido[3,4-b]pyrazin-5-amine] here?
A: The IC50 was 0.058 µM.

Q: And the IC50 (BACE1)?
A: The IC50 was 0.008 µM.

Q: And the IC50 (Cathepsin D (Cat D))?
A: Its IC50 is 1310 µM.

Q: What about the IC50 [1] of the same compound?
A: The IC50 was 0.188 µM.

Q: With `CC#C[C@@H](C)Oc1cnc(C(=O)Nc2ccc(F)c([C@@]3(C)N=C(N)[C@@]4(C)CC[C@@H]3S4(=O)=O)c2)cn1` [Example 70, N-(3-((1S,2R,5R)-4-amino-2,5-dimethyl-8,8-dioxido-8-thia-3-azabicyclo[3.2.1]oct-3-en-2-yl)-4-fluorophenyl)-5-(((1R)-1-methyl-2-butyn-1-yl)oxy)-2-pyrazinecarboxamide] as the compound, how does the IC50 (human Bace2 protein) read?
A: The IC50 was 0.05 µM.

Q: And the IC50 (BACE1)?
A: Its IC50 is 0.014 µM.

Q: What about the IC50 (Cathepsin D (Cat D)) of the same compound?
A: The IC50 was greater than 400 µM.

Q: What about the IC50 [1] of the same compound?
A: Its IC50 is 0.007 µM.

Q: With `C[C@]12CC[C@H]([C@@](C)(c3cc(Nc4nccc5cc(C#N)cnc45)ccc3F)N=C1N)S2(=O)=O` [Example 85, 8-((3-((1R,2R,5S)-4-amino-2,5-dimethyl-8,8-dioxido-8-thia-3-azabicyclo[3.2.1]oct-3-en-2-yl)-4-fluorophenyl)amino)-1,7-naphthyridine-3-carbonitrile] as the compound, how does the IC50 (human Bace2 protein) read?
A: Its IC50 is 0.024 µM.

Q: What about the IC50 (BACE1) of the same compound?
A: Its IC50 is 0.013 µM.

Q: And the IC50 (Cathepsin D (Cat D))?
A: Its IC50 is 1450 µM.

Q: And the IC50 [1]?
A: The IC50 was 0.011 µM.
